Laboratory results from article doi:10.1101/212837v1 (biorxiv, 2017).

Target: GAA (human acid α-glucosidase; rhGAA) (Homo sapiens, UniProt P10253)
Type: biochemical

Ki: 5.8 ± 0.6 mM
Structure (SMILES): OC[C@H]1OC(O)[C@H](O)[C@@H](O)[C@@H]1O (mixture of isomers) [glucose]
